According to BindingDB's records for doi:10.1016/j.ejmech.2017.11.048 (University of New Mexico, 2018):
Values belong to the compound of their own block, whether it stands above or below them.

Biological target: T1, Nuclear factor erythroid 2-related factor 2 (Homo sapiens, UniProt Q16236)
T1 sequence (Q16236 whole entry): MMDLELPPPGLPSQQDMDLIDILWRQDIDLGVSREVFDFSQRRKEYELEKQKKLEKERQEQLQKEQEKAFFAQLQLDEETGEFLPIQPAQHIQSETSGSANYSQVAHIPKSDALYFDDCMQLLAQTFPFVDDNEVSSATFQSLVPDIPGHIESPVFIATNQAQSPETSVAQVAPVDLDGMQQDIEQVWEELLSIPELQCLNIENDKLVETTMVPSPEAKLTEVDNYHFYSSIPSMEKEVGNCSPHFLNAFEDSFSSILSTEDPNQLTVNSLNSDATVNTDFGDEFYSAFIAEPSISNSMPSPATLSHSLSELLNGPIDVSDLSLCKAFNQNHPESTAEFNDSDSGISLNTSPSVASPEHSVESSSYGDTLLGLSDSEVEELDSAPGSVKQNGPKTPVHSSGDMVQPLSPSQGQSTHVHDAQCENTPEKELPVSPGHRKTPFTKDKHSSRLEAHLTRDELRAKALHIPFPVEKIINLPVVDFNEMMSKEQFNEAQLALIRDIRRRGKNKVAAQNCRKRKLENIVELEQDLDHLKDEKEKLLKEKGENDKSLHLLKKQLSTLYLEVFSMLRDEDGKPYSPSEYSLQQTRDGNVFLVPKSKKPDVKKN
Assay: Activation of Nrf2 (unknown origin) expressed in human HepG2 cells after 5 hrs by ARE-driven luciferase reporter gene assay

SMILES: COc1cc(/C=C/C(=O)/C=C/c2ccc(O)c(OC)c2)ccc1O [(1E,4E)-1,5-Bis-(4-hydroxy-3-methoxy-phenyl)-penta-1,4-dien-3-one]
EC50: 9.9 µM

SMILES: O=C(/C=C/c1ccccc1O)/C=C/c1ccccc1O [US9187397, 20q]
EC50: 3.3 µM

SMILES: COc1cc(/C=C/C(=O)CC(=O)/C=C/c2ccc(O)c(OC)c2)ccc1O [CHEBI:3962]
EC50: 21 µM

SMILES: Cc1ccc(C(=O)/C=C/c2ccccc2)c(C)c1
EC50: 21.1 µM

Further lines, results first:

EC50: 1.32 µM
SMILES: COc1cc(OC)c(OC)cc1/C=C/C(=O)/C=C/c1cc(OC)c(OC)cc1OC [Go-Y021]

EC50: 5.3 µM
SMILES: COc1cc(/C=C2\CCC/C(=C\c3cc(OC)cc(OC)c3)C2=O)cc(OC)c1
